Consider 2 compounds from paper PMC7071076, “Antibacterial Activity and Pharmacokinetic Profile of a Promising Antibacterial Agent: 22-(2-Amino-phenylsulfanyl)-22-Deoxypleuromutilin” (Molecules, 2020).

One test deals with E. coli ATCC 25922. Briefly: MIC testing (broth dilution, 96-well plate). The conditions noted are these: Escherichia coli, ATCC25922. The test is classed as cell-based. On the procedure:
(§1) The MIC of amphenmulin against MRSA, Escherichia coli, Salmonella typhimurium, Enterococcus faecalis, and Enterococcus faecium were determined using tiamulin as controls. MIC values were measured by the method of previous work. Staphylococcus aureus ATCC 29213 was used as the quality control bacteria, and the quality control range was referred to the Clinical and Laboratory Standards Institute (CLSI). The bacteria solution was diluted to ~10^6 CFU/mL with Mueller–Hinton (MH) broth for MRSA, Escherichia coli and Salmonella typhimurium while Trypticase Soy Broth for Enterococcus faecalis and Enterococcus faecium. Drugs were dissolved in an aqueous solution of N, N-dimethylformamide (DMF) at a concentration of 2560 µg/mL, and then diluted with broth to prepare working solution (1280 µg/mL). The drug susceptibility testing was performed in 96-well plate. A total of 20 µL of working solution was added into column 1 and well mixed as a 10-fold dilution, following which Serial 2-fold dilutions were prepared to provide concentration ranges of 128–0.0078 µg/mL. Blank broth (no cultures) and bacteria solution (drugs replaced by blank solvent) were set as drug-free controls. Each 96-well plate was cultured at 37 °C for 24 h. The MIC value is the lowest concentration of amphenmulin which inhibits the visible growth of bacteria. The experiment was repeated three times.

The test system of another test is E. faecalis ATCC 29212. Briefly: MIC testing (broth dilution, 96-well plate). The test is classed as cell-based. The following applies: Enterococcus faecalis, ATCC29212. On the procedure: as §1
The test system of the next test is E. faecium ATCC 35667. Briefly: MIC testing (broth dilution, 96-well plate). It is filed as cell-based. The conditions noted are these: Enterococcus faecium, ATCC35667. The method, then: as §1
A further test deals with S. aureus ATCC 29213. Briefly: MIC testing (broth dilution, 96-well plate). It is filed as cell-based. The following applies: Staphylococcus aureus, ATCC29213. On the procedure: as §1
Test [1] deals with S. typhimurium ATCC 14028. Briefly: MIC testing (broth dilution, 96-well plate). The test is classed as cell-based. The conditions noted are these: Salmonella enterica. The method, then:
as §1

A further test relates to MRSA N20. Briefly: MIC testing, clinical strain. The following applies: Staphylococcus aureus. It is filed as cell-based.
Description: (§2) Methicillin-resistant Staphylococcus aureus (MRSA) ATCC 43300, Staphylococcus aureus ATCC 29213, Escherichia coli ATCC 25922, Salmonella typhimurium ATCC 14028, Enterococcus faecalis ATCC 29212, and Enterococcus faecium ATCC 35667 were obtained from the China Institute of Veterinary Drug Control (Beijing, China). Five clinical strains of MRSA (N7, N9, N20, N30, and N54) were isolated from diseased pig tissues of South China Agricultural University and Foshan University Animal Hospital. All clinical strains were identified as MRSA by Gram stain, catalase reaction, coagulase test, staphylococcus API identification system test, MecA gene test, and methicillin MIC test.
as §1

The subject of a further test is MRSA N30. Briefly: MIC testing, clinical strain. The conditions noted are these: Staphylococcus aureus. The test is classed as cell-based.
Description: as §2, §1

The subject of another test is MRSA N54. Briefly: MIC testing, clinical strain. The test is classed as cell-based. The following applies: Staphylococcus aureus.
Description: as §2, §1

In a further test the test system is MRSA N7. Briefly: MIC testing, clinical strain. It is filed as cell-based. The following applies: Staphylococcus aureus.
Description: as §2, §1

In a further test the test system is MRSA N9. Briefly: MIC testing, clinical strain. The test is classed as cell-based. The conditions noted are these: Staphylococcus aureus.
Description: as §2, §1

Test [2] deals with MRSA ATCC 43300. Also noted: method as in PMID 28295316. The conditions noted are these: 4× MIC, cited from earlier work.
Test [3] concerns MRSA ATCC 43300. Briefly: MRSA wound infection model: wound size. The conditions noted are these: after treatment for three days; 100 μL drug (3 mg/mL) on the wound. It is filed as in vivo, mice. On the procedure:
(§3) Six weeks SPF-ICR female mice were used for this study. The Experimental model, inducted of inflammatory in mice by skin excision, was established referring to existing methods with some alterations. The mice were anesthetized with the intravenous injection of 1% sodium pentobarbital. After their hair on the back was shaved, the mice were anesthetized and the back skin was perforated with a biopsy perforator at a depth of fascia injury. The inoculum (50 μL), containing 10^9 CFU/mL of the indicated microorganism (MRSA ATCC 43300), was applied on the wound for three times at 30 min intervals. 100 μL drug (3 mg/mL) was administrated on the wound at 1 h after inoculation for three consecutive days. A total of 100 μL blank matrix was given to the infected control group and the non-infected group in the same way. The wound was wrapped with sterile gauze. During the treatment, all mice were kept individually and free to eat and drink.
The wounds were examined on day 1 and days 3 after treatment. The area of wound were measured according to previous reports with some modifications. In each group, six mice were taken out and anesthetized to take photos and measure the size of the wound as the results.

Test [4] deals with MRSA ATCC 43300. Briefly: MRSA wound infection model: wound bacterial burden. The test is classed as in vivo, mice. On the procedure: as §3
At the end of the examination, mice were anesthetized and killed. Tissue samples, reaching to the muscle membrane, were removed from the middle of the wound surface and homogenized in 0.9% saline. Serially diluted aliquots of homogenate were cultured on high-salt mannitol agar plate at 37 °C for 24 h. The log of the colony number was used for statistical analysis.

Structures are written as SMILES. In brackets after ≈: the same amount, converted by molar mass. Structures can show the parent of a compound that is named as a salt. Where two headings read alike, the source gives them in different places.

With `C=C[C@]1(C)C[C@@H](OC(=O)CSCCN(CC)CC)[C@]2(C)[C@H](C)CC[C@]3(CCC(=O)[C@H]32)[C@@H](C)[C@@H]1O` [Tiamulin, reference compound], the minimal inhibitory concentration (MIC) against E. coli ATCC 25922 is > 128 mg/L; against E. faecalis ATCC 29212, > 128 mg/L; in the test on E. faecium ATCC 35667, 2 mg/L (≈ 4.05 µM); in the test with S. aureus ATCC 29213, 0.5 mg/L (≈ 1.01 µM); in test [1] it was > 128 mg/L; in the test with MRSA N20, 32 mg/L (≈ 64.8 µM). The MIC with MRSA N30 was 32 mg/L (≈ 64.8 µM); in the test with MRSA N54, 0.5 mg/L (≈ 1.01 µM); with MRSA N7, 16 mg/L (≈ 32.4 µM); against MRSA N9 it was 0.5 mg/L (≈ 1.01 µM). The figures for the PAE in the test on MRSA ATCC 43300 [2] (exposure for 1 h) and in the test on MRSA ATCC 43300 [2] (exposure for 2 h) were 1.90 h and 2.04 h, respectively.

For `CN[C@H](CC(C)C)C(=O)N[C@H]1C(=O)N[C@@H](CC(N)=O)C(=O)N[C@H]2C(=O)N[C@H]3C(=O)N[C@H](C(=O)N[C@H](C(=O)O)c4cc(O)cc(O)c4-c4cc3ccc4O)[C@H](O)c3ccc(c(Cl)c3)Oc3cc2cc(c3O[C@@H]2O[C@H](CO)[C@@H](O)[C@H](O)[C@H]2O[C@H]2C[C@](C)(N)[C@H](O)[C@H](C)O2)Oc2ccc(cc2Cl)[C@H]1O` [vancomycin, vancomycin hydrochloride, reference compound], in the test on MRSA ATCC 43300 [3], the wound area is 0.44 ± 0.07 cm^2. Further, the “number of bacteria in wound tissue vs infected group” value in the test with MRSA ATCC 43300 [4] (one day after treatment, p < 0.05) is “significant decrease”. Moreover, the “number of bacteria in wound tissue” value with MRSA ATCC 43300 [4] (three days after treatment, 100 μL drug (3 mg/mL) on the wound) was 4.25 ± 0.57 log10 CFU/mL.
